The values below come from patent publication US9403813B2, “Azetidine amide derivatives as orexin receptor antagonists” (ACTELION PHARMACEUTICALS LTD, priority 2013, dated 2016).

The structures appear in SMILES notation. pIC50: −log10 of the molar value.

One test deals with human orexin-1 receptor (Homo sapiens (Human), UniProt O43613). Kind of test: Intracellular calcium measurements (FLIPR), antagonism of orexin-A response. The class given is cell-based. To be noted: CHO cells expressing human orexin-1 receptor, 3 nM orexin-A, geometric mean if determined several times, read-out: IC50 OX1. The essentials:
(§1)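 CHO cells expressing human OX1 or OX2 receptor, loaded with fluo-4 AM plus probenecid, preincubated with antagonist 120 min before 3 nM orexin-A challenge. FLIPR calcium peak heights compared with agonist-plus-vehicle response. IC50 possibly normalized to on-plate reference; geometric mean of repeat determinations.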
(Calcium assays in cells follow changes in intracellular calcium, usually with a dye or a luminescent sensor.)

Another test has as its target human orexin-2 receptor (Homo sapiens (Human), UniProt O43614). The test is described as above. The class given is cell-based. To be noted: CHO cells expressing human orexin-2 receptor, 3 nM orexin-A, geometric mean if determined several times, read-out: IC50 OX2. An outline of the steps: as §1

Chain of human orexin-2 receptor (O43614 whole entry): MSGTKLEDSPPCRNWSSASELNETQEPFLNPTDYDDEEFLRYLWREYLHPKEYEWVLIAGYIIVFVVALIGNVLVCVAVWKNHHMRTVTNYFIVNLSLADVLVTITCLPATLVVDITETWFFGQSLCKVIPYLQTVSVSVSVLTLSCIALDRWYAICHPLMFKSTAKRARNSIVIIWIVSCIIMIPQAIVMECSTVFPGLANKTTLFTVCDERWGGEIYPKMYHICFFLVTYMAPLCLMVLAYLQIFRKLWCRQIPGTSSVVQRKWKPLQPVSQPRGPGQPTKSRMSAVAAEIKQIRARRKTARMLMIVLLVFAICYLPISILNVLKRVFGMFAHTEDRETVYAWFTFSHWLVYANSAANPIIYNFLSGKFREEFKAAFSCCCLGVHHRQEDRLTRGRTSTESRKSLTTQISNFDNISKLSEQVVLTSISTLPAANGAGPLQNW
Chain of human orexin-1 receptor (O43613 whole entry): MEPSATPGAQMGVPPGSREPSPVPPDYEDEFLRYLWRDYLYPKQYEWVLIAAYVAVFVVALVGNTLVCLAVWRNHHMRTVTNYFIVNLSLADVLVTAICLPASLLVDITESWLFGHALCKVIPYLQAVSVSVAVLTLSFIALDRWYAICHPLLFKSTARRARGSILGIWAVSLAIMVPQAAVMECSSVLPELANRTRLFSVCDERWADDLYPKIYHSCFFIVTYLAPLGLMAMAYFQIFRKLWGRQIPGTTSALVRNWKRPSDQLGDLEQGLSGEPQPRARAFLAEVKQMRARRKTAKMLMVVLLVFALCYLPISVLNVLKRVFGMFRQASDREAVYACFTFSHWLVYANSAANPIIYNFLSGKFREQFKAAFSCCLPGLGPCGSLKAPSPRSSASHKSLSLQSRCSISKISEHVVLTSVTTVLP

`Cc1cc(C(=O)N2CC[C@H]2c2noc(-c3ccccc3OC(F)(F)F)n2)c(-n2nccn2)cc1C` [Example 85, (4,5-Dimethyl-2-[1,2,3]triazol-2-yl-phenyl)-{(S)-2-[5-(2-trifluoromethoxy-phenyl)-[1,2,4]oxadiazol-3-yl]-azetidin-1-yl}-methanone]: the pIC50 – broadly, the IC50 on a negative log10 scale, so that one unit is a factor of ten – is 7.47 at human orexin-1 receptor and 8.52 at human orexin-2 receptor.
In the same order, the values of `COc1cc(C(=O)N2CC[C@H]2c2noc(-c3cccc(F)c3C)n2)c(-n2nccn2)cc1Cl` [Example 96, (4-Chloro-5-methoxy-2-[1,2,3]triazol-2-yl-phenyl)-{(S)-2-[5-(3-fluoro-2-methyl-phenyl)-[1,2,4]oxadiazol-3-yl]-azetidin-1-yl}-methanone] are 6.51 and 8.52.
Taken in the same sequence, the figures for `Cc1c(Cl)cccc1-c1noc([C@@H]2CCN2C(=O)c2ccc(Cl)cc2-n2nccn2)n1` [Example 76, {(S)-2-[3-(3-Chloro-2-methyl-phenyl)-[1,2,4]oxadiazol-5-yl]-azetidin-1-yl}-(4-chloro-2-[1,2,3]triazol-2-yl-phenyl)-methanone] were 6.04 and 7.96.
Regarding `Cc1ccc(-n2nccn2)c(C(=O)N2CC[C@H]2c2nnc(-c3ccccc3)[nH]2)c1` [Example 120, (5-Methyl-2-[1,2,3]triazol-2-yl-phenyl)-[(S)-2-(5-phenyl-4H-[1,2,4]triazol-3-yl)-azetidin-1-yl]-methanone], the pIC50 at human orexin-1 receptor is 4.87; at human orexin-2 receptor, 6.35.
With `Cc1ccc(-c2sc(C)nc2C(=O)N2CC[C@H]2c2nc(-c3ccccc3OC(F)(F)F)no2)cc1` [Example 44, (2-Methyl-5-p-tolyl-thiazol-4-yl)-{(S)-2-[3-(2-trifluoromethoxy-phenyl)-[1,2,4]oxadiazol-5-yl]-azetidin-1-yl}-methanone], the results for the pIC50 on human orexin-1 receptor and at human orexin-2 receptor were 6.55 and 7.14, respectively.
`Cc1ccc(-n2nccn2)c(C(=O)N2CC[C@H]2c2nc(-c3ccccc3C)no2)c1` [Example 1, (5-Methyl-2-[1,2,3]triazol-2-yl-phenyl)-[(S)-2-(3-o-tolyl-[1,2,4]oxadiazol-5-yl)-azetidin-1-yl]-methanone]: the pIC50 on human orexin-1 receptor was 5.91; on human orexin-2 receptor, 7.72.
In the same order, the values of `COc1cc(C(=O)N2CC[C@H]2c2nnc(-c3ccccc3OC(F)(F)F)[nH]2)c(-n2nccn2)cc1C` [Example 129, (5-Methoxy-4-methyl-2-[1,2,3]triazol-2-yl-phenyl)-{(S)-2-[5-(2-trifluoromethoxy-phenyl)-4H-[1,2,4]triazol-3-yl]-azetidin-1-yl}-methanone] are 6.34 and 8.22.
Regarding `Cc1ccc(-n2nccn2)c(C(=O)N2CC[C@H]2c2nc(-c3ccccc3)no2)c1` [Example 36, (5-Methyl-2-[1,2,3]triazol-2-yl-phenyl)-[(S)-2-(3-phenyl-[1,2,4]oxadiazol-5-yl)-azetidin-1-yl]-methanone], the figures for the pIC50 on human orexin-1 receptor and on human orexin-2 receptor were 5.42 and 6.54, respectively.
In the same order, the values of `Cc1cc(-n2nccn2)c(C(=O)N2CC[C@H]2c2noc(-c3cccc(Cl)c3C)n2)cc1Cl` [Example 105, {(S)-2-[5-(3-Chloro-2-methyl-phenyl)-[1,2,4]oxadiazol-3-yl]-azetidin-1-yl}-(5-chloro-4-methyl-2-[1,2,3]triazol-2-yl-phenyl)-methanone] are 6.91 and 8.30.
In the same order, the values of `O=C(c1ncsc1-c1cccc(Cl)c1)N1CC[C@H]1c1nc(-c2ccccc2OC(F)(F)F)no1` [Example 43, [5-(3-Chloro-phenyl)-thiazol-4-yl]-{(S)-2-[3-(2-trifluoromethoxy-phenyl)-[1,2,4]oxadiazol-5-yl]-azetidin-1-yl}-methanone] are 6.54 and 6.45.
Taken in the same sequence, the figures for `O=C(c1ccccc1-n1nccn1)N1CC[C@H]1c1nc(-c2ccccc2OC(F)(F)F)no1` [Example 50, (2-[1,2,3]Triazol-2-yl-phenyl)-{(S)-2-[3-(2-trifluoromethoxy-phenyl)-[1,2,4]oxadiazol-5-yl]-azetidin-1-yl}-methanone] were 6.23 and 7.04.
In the case of `Cc1ccc(-c2ncccn2)c(C(=O)N2CC[C@H]2c2nnc(-c3ccccc3OC(F)(F)F)[nH]2)c1` [Example 135, (5-Methyl-2-pyrimidin-2-yl-phenyl)-{(S)-2-[5-(2-trifluoromethoxy-phenyl)-4H-[1,2,4]triazol-3-yl]-azetidin-1-yl}-methanone], the pIC50 at human orexin-1 receptor was 5.70; at human orexin-2 receptor, 6.46.
In the same order, the values of `COc1cc(C(=O)N2CC[C@H]2c2nc(-c3cccc(Cl)c3C)no2)c(-n2nccn2)cc1Cl` [Example 74, (4-Chloro-5-methoxy-2-[1,2,3]triazol-2-yl-phenyl)-{(S)-2-[3-(3-chloro-2-methyl-phenyl)-[1,2,4]oxadiazol-5-yl]-azetidin-1-yl}-methanone] are 6.24 and 8.22.
Consider `Cc1ccc(-n2nccn2)c(C(=O)N2CC[C@H]2c2noc(-c3ccccc3OC(F)(F)F)n2)c1` [Example 84, (5-Methyl-2-[1,2,3]triazol-2-yl-phenyl)-{(S)-2-[5-(2-trifluoromethoxy-phenyl)-[1,2,4]oxadiazol-3-yl]-azetidin-1-yl}-methanone], for which the pIC50 is 6.99 on human orexin-1 receptor and 7.96 on human orexin-2 receptor.
`COc1cc(C(=O)N2CC[C@H]2c2nc(-c3cccc(Cl)c3C)no2)c(-n2nccn2)cc1F` [Example 24, {(S)-2-[3-(3-Chloro-2-methyl-phenyl)-[1,2,4]oxadiazol-5-yl]-azetidin-1-yl}-(4-fluoro-5-methoxy-2-[1,2,3]triazol-2-yl-phenyl)-methanone]: the negative-log IC50 (pIC50) on human orexin-1 receptor is 6.02; on human orexin-2 receptor, 7.60.
Taken in the same sequence, the figures for `CCOc1ncccc1-c1nnc([C@@H]2CCN2C(=O)c2cc(C)ccc2-n2nccn2)[nH]1` [Example 122, {(S)-2-[5-(2-Ethoxy-pyridin-3-yl)-4H-[1,2,4]triazol-3-yl]-azetidin-1-yl}-(5-methyl-2-[1,2,3]triazol-2-yl-phenyl)-methanone] were 5.64 and 7.04.
Taken in the same sequence, the figures for `COc1cc(C(=O)N2CC[C@H]2c2nc(-c3ccccc3OC(F)(F)F)no2)c(-n2nccn2)cc1F` [Example 23, (4-Fluoro-5-methoxy-2-[1,2,3]triazol-2-yl-phenyl)-{(S)-2-[3-(2-trifluoromethoxy-phenyl)-[1,2,4]oxadiazol-5-yl]-azetidin-1-yl}-methanone] were 5.85 and 7.41.
Taken in the same sequence, the figures for `Cc1ccc(-n2nccn2)c(C(=O)N2CC[C@H]2c2noc(-c3cccc(Cl)c3C)n2)c1` [Example 101, {(S)-2-[5-(3-Chloro-2-methyl-phenyl)-[1,2,4]oxadiazol-3-yl]-azetidin-1-yl}-(5-methyl-2-[1,2,3]triazol-2-yl-phenyl)-methanone] were 7.06 and 8.10.
For `COc1cc(C(=O)N2CC[C@H]2c2nc(-c3cccc(F)c3OC)no2)c(-n2nccn2)cc1F` [Example 26, {(S)-2-[3-(3-Fluoro-2-methoxy-phenyl)-[1,2,4]oxadiazol-5-yl]-azetidin-1-yl}-(4-fluoro-5-methoxy-2-[1,2,3]triazol-2-yl-phenyl)-methanone], the negative logarithm of the IC50 (pIC50) at human orexin-1 receptor was 5.68; at human orexin-2 receptor, 7.59.
In the case of `Cc1cccc(-c2sc(C)nc2C(=O)N2CC[C@H]2c2nc(-c3ccccc3OC(F)(F)F)no2)c1` [Example 38, (2-Methyl-5-m-tolyl-thiazol-4-yl)-{(S)-2-[3-(2-trifluoromethoxy-phenyl)-[1,2,4]oxadiazol-5-yl]-azetidin-1-yl}-methanone], the negative-log IC50 (pIC50) on human orexin-1 receptor is 6.49; on human orexin-2 receptor, 6.92.
In the case of `Cc1nc(C(=O)N2CC[C@H]2c2nc(-c3cccc(Cl)c3C)no2)c(-c2ccccc2C)s1` [Example 63, {(S)-2-[3-(3-Chloro-2-methyl-phenyl)-[1,2,4]oxadiazol-5-yl]-azetidin-1-yl}-(2-methyl-5-o-tolyl-thiazol-4-yl)-methanone], the pIC50 at human orexin-1 receptor is 5.95; at human orexin-2 receptor, 6.35.
In the same order, the values of `Cc1nc(C(=O)N2CC[C@H]2c2nc(-c3ccccc3OC(F)(F)F)no2)c(-c2ccccc2F)s1` [Example 37, [5-(2-Fluoro-phenyl)-2-methyl-thiazol-4-yl]-{(S)-2-[3-(2-trifluoromethoxy-phenyl)-[1,2,4]oxadiazol-5-yl]-azetidin-1-yl}-methanone] are 6.34 and 7.23.
For `Cc1ccc(-c2ccccc2)c(C(=O)N2CC[C@H]2c2nc(-c3ccccc3OC(F)(F)F)no2)c1` [Example 39, (4-Methyl-biphenyl-2-yl)-{(S)-2-[3-(2-trifluoromethoxy-phenyl)-[1,2,4]oxadiazol-5-yl]-azetidin-1-yl}-methanone], the pIC50 on human orexin-1 receptor was 7.12; at human orexin-2 receptor, 8.40.
Taken in the same sequence, the figures for `COc1cc(C(=O)N2CC[C@H]2c2nc(-c3ccccc3OC(F)(F)F)no2)c(-n2nccn2)cc1Cl` [Example 75, (4-Chloro-5-methoxy-2-[1,2,3]triazol-2-yl-phenyl)-{(S)-2-[3-(2-trifluoromethoxy-phenyl)-[1,2,4]oxadiazol-5-yl]-azetidin-1-yl}-methanone] were 6.42 and 7.92.
In the same order, the values of `COc1c(Cl)cccc1-c1nc([C@@H]2CCN2C(=O)c2cc(C)c(C)cc2-n2nccn2)no1` [Example 110, {(S)-2-[5-(3-Chloro-2-methoxy-phenyl)-[1,2,4]oxadiazol-3-yl]-azetidin-1-yl}-(4,5-dimethyl-2-[1,2,3]triazol-2-yl-phenyl)-methanone] are 7.34 and 9.00.
In the same order, the values of `Cc1c(Cl)cccc1-c1noc([C@@H]2CCN2C(=O)c2cc(OC(F)(F)F)ccc2-n2nccn2)n1` [Example 65, {(S)-2-[3-(3-Chloro-2-methyl-phenyl)-[1,2,4]oxadiazol-5-yl]-azetidin-1-yl}-(2-[1,2,3]triazol-2-yl-5-trifluoromethoxy-phenyl)-methanone] are 5.56 and 6.17.
